Assay results: patent US20190284258A1, “HAEMADIPSA SYLVESTRIS ANTITHROMBOTIC PEPTIDE SYLVESTIN AND USE THEREOF” (priority 2016, published 2019)
Positions of bridges follow the written chain, without caps; N, C: chain ends. No end group written: not given here.

Assays:
tail thrombosis = assay: Carrageenan-induced rat tail thrombosis model; format: in vivo, Kunming mice; details: for effect on tail thrombosis (average length of thrombus) compared with control group: each time point 12, 24, 36, 48 h, Sylvestin 2 and 4 mg/kg, heparin sodium 500 U/mouse, t-test p<0.05
Procedure: [Worded in the source for another organism; this organism is reported under the same test.] Kunming mice were used as experimental animals, body weight 25 to 30 g (provided by the Experimental Animal Center of Kunming Medical College). After one week of housing, they were randomly divided into groups (n=6), half male and half female. One group was a physiological saline control group, the sample groups were Sylvestin synthesized in Example 2 at a dose of 2 mg/kg and 4 mg/kg, respective, and the positive control was given heparin sodium (Beijing Dingguo Changsheng Biotechnology Co., Ltd.), 500 U/mouse. 30 minutes after tail vein administration, carrageenan (carrageenan, type I, Sigma, dissolved in physiological saline to a concentration of 1%) was injected from the abdomen of the mice at a dose of 60 mg/kg, since the thrombosis rate was >90% in a low temperature environment, the housing temperature was set at 17.5° C. After 12, 24, 36, and 48 h, the average length of thrombus was determined according to the color change of the tail skin. Referring to FIG. 1, the average length of thrombus in each group increased with time. […] Data processing was Graphpad Prime 5, data mean±SD, t-test (*p<0.05).

plasminogen = assay: Enzyme kinetics, plasminogen; format: biochemical; details: sample 10 μM
FXIIa = target: T1, FXIIa (Homo sapiens, UniProt P00748); assay: Enzyme kinetics, chromogenic substrate, FXIIa; format: biochemical; details: sample 10 μM
T1 sequence (P00748 373-615 limits assumed): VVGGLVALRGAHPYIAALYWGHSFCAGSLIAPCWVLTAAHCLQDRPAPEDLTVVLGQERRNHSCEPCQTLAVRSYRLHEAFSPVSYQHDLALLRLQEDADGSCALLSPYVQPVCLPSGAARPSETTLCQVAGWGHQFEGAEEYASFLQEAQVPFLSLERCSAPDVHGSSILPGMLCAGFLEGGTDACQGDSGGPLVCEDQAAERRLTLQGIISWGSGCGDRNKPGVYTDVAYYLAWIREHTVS
Procedure: (§1) In a 96-well plate, 10 μL of the sample and 10 μL of FXIIa with a final concentration of 0.2 μM were mixed in 40 μL of buffer (100 mM NaCl, 50 mM Tris-HCl (pH 8.0), 5 mM CaCl2), allowed to stand at room temperature for 5 min. A mixture of 30 μL of buffer and 10 μL of chromogenic substrate with a final concentration of 0.04 mM was added to each well, the final volume was 100 μL. The kinetics of the coagulation reaction was measured using an Epoch (BioTek) microplate reader and GEN CHS 1.09 software, OD 405 nm, 20 min, with 47 s intervals. The concentration of the sample was 10 μM.

FXa = FXa (Homo sapiens, UniProt P00742); assay: Enzyme kinetics, FXa; format: biochemical; details: sample 10 μM
[1] = test system: endogenous coagulation pathway (normal plasma); assay: APTT experiment; details: OD 650 nm
Procedure: (§2) The APTT reagent was equilibrated to room temperature and the APTT reagent was mixed by gentle inversion; 50 μL of the reagent, 50 μL of normal plasma and 5 μL of the sample were mixed and incubated in a 37° C. water bath for 3 min; 50 μL of pre-warmed CaCl2 solution was added, mixed immediately; the OD 650 nm was detected with a microplate reader. PT experiment: prothrombin reagent was pre-warmed at 37° C. for 15 min; 50 μL of normal plasma and 5 μL of the sample were incubated in a 37° C. water bath for 3 min; 100 μL of pre-warmed prothrombin reagent was added, mixed immediately; OD 650 nm was detected with a microplate reader.

[2] = Isoelectric focusing electrophoresis; format: physicochemical
Procedure: 3.3 The purity of the purified Haemadipsa sylvestris antithrombotic peptide was determined by HPLC, the molecular weight was determined by fast atom bombardment mass spectrometry, the isoelectric point was determined by isoelectric focusing electrophoresis, and the amino acid sequence was determined by automatic amino acid sequencer.

[3] = test system: cerebral ischemia and reperfusion injury; assay: Acute cerebral ischemic intraluminal thread model; format: in vivo, Kunming mice; details: 1, 3, 5 mg/kg i.v. tail vein; 1 h ischemia, assessed at 24 h
Procedure: Kunming mice (30 to 35 g) were anesthetized with 2% sodium pentobarbital (80 mg/kg). After medium-deep anesthesia, a midline neck incision was made, the skin and subcutaneous tissue of the mice were incised layer by layer, the sternocleidomastoid muscle was separated, the anterior belly of the digastric muscle was incised off, the right common carotid artery (CCA), internal carotid artery (ICA) and external carotid artery (ECA) were exposed, an electric coagulator was used to coagulate thyroid artery and pharyngeal artery over the ECA and they were cut off. Ligation of the distal end of the ECA was performed, seton was placed at the proximal end, CCA and ICA were temporarily closed using a clip, the ECA was cut off, an intraluminal thread was inserted into the ICA from the ECA stump, ligation of the ECA stump was performed, the artery clip of the ICA was removed, pushed inward and upward from the ICA. […] Cerebral ischemia for 24 h, and the neurological deficit score was assessed and recorded according to the Bederson Scale assessment: 0 is no dysfunction; 1 is being unable to extend the right forelimb; 2 is rotating to right; 3 is dumping to right; 4 is no autonomous activity with disturbance of consciousness; 5 is death. […]

normal plasma = assay: PT experiment; details: OD 650 nm
Procedure: as §2

kallikrein = assay: Enzyme kinetics, kallikrein; format: biochemical
Procedure: [Worded in the source for another target; this target is reported under the same test.] as §1

thrombin = thrombin (Homo sapiens, UniProt P00734); assay: Enzyme kinetics, thrombin; format: biochemical; details: sample 10 μM

FXa, sequence (P00742 235-488 limits assumed): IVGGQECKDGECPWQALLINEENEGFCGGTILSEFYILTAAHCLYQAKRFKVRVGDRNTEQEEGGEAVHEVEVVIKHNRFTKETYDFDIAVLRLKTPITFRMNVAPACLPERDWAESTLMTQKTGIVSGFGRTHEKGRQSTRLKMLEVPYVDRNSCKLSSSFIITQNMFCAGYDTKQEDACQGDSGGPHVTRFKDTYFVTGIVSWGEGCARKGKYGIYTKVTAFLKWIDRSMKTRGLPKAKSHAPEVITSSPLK
FXa, sequence (P00742 41-179 partner limits assumed): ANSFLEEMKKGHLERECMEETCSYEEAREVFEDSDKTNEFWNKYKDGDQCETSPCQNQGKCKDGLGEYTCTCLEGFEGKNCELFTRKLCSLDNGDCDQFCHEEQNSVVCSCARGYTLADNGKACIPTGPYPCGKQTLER

Row | Substance | change of length of thrombus from 12 h to 24 h (tail thrombosis) | effect on tail thrombosis (average length of thrombus) compared with control group (tail thrombosis; tail vein) | inhibitory effect on plasminogen (plasminogen) | inhibitory effect on FXIIa (FXIIa) | inhibition rate against thrombus versus dose (tail thrombosis; 2 mg/kg and 4 mg/kg) | inhibition rate against thrombosis over time (tail thrombosis; 12 to 48 h) | inhibitory effect on thrombosis compared with control group after 48 h (tail thrombosis; 48 h, tail vein) | inhibitory effect on FXa (FXa) | effect in APTT experiment [1] | isoelectric point [2] | injury caused by cerebral ischemia and reperfusion (Bederson score, ischemic volume) [3] | effect in PT experiment (normal plasma) | Ki (kallikrein; read-out: inhibition constant on kallikrein) [nM] | inhibitory effect on kallikrein (kallikrein; sample 10 μM) | inhibitory effect on thrombin (thrombin)
1 | heparin sodium [reference compound] | doubled | statistically significant |  |  |  |  |  |  |  |  |  |  |  |  | 
2 | TSEPVCACPKMLFWVCGKDGETYTHPCIAKCHNVEVEHDGKCK (disulfide 6-31, 8-27, 16-42) [Sylvestin] | increased slightly | statistically significant | no inhibitory effect | can inhibit | increased as concentration increased | decreased over time | significant inhibitory effect | no inhibitory effect | concentration-dependent effect | 6.28 | effectively alleviate the injury | no effect | 17.8 | can inhibit | no inhibitory effect
